Measurements taken from ChEMBL document CHEMBL5338785, “Development of Aromatic-Linked Diamino Acid Antimicrobial Peptide Mimics with Low Hemolytic Toxicity and Excellent Activity against Methicillin-Resistant Staphylococcus aureus (MRSA)” (J Med Chem, 2023).
Converted amounts (≈) assume the structure as drawn.

Assays:
Escherichia coli = experiment: Antibacterial activity against Escherichia coli assessed as bacterial growth inhibition incubated for 18 hrs by CLSI protocol based Mueller-Hinton broth assay; assay type: functional; details: Escherichia coli, read-out: MIC
[1] = Selectivity index, ratio of HC50 for hemolytic activity in sheep RBC to MIC for antibacterial activity against methicillin-resistant Staphylococcus aureus assessed as bacterial growth inhibition; assay type: toxicity; details: sheep red blood cells
Staphylococcus aureus = experiment: Antibacterial activity against methicillin-resistant Staphylococcus aureus assessed as bacterial growth inhibition incubated for 18 hrs by CLSI protocol based Mueller-Hinton broth assay; assay type: functional; details: Staphylococcus aureus, read-out: MIC
[2] = Hemolytic activity in sheep RBC assessed as hemolysis incubated for 1 hr by microplate reader method; assay type: toxicity, cell-based, Ovis aries, Erythrocyte; details: sheep red blood cells
Enterococcus faecalis = experiment: Antibacterial activity against Enterococcus faecalis assessed as bacterial growth inhibition incubated for 18 hrs by CLSI protocol based Mueller-Hinton broth assay; assay type: functional; details: Enterococcus faecalis, 18 h, read-out: MIC
[3] = test system: Stenotrophomonas maltophilia; experiment: Antibacterial activity against Stenotrophomonas maltophilia assessed as bacterial growth inhibition incubated for 18 hrs by CLSI protocol based Mueller-Hinton broth assay; assay type: functional; details: Stenotrophomonas maltophilia, read-out: MIC

Structure (SMILES)	MIC (Escherichia coli)	selectivity ratio [1]	MIC (Escherichia coli; 18 h)	MIC (Staphylococcus aureus)	HC50 at 1 h [2]	MIC (Enterococcus faecalis)	MIC [3]
C[C@@H](O)[C@H]1C(=O)N2C(C(=O)O)=C(S[C@@H]3CN[C@H](C(=O)N(C)C)C3)[C@H](C)[C@H]12 [MEROPENEM]	0.062 µg/mL (≈ 0.162 µM)	–	–	–	–	–	–
CCCCCCCCN(CCOc1ccc(OCCN(CCCCCCCC)C(=O)[C@@H](N)CCCCN)cc1)C(=O)[C@@H](N)CCCCN.Cl.Cl.Cl.Cl	–	93	2 µg/mL	1 µg/mL	93 µg/mL	0.5 µg/mL	1 µg/mL
CCCCN(CCCOc1ccccc1-c1ccccc1OCCCN(CCCC)C(=O)[C@@H](N)CCCCN)C(=O)[C@@H](N)CCCCN.Cl.Cl.Cl.Cl	–	> 125	32 µg/mL	8 µg/mL	> 1000 µg/mL	8 µg/mL	32 µg/mL
CCCCCCCCCN(CCCOc1ccccc1)C(=O)[C@@H](N)CCCCN.Cl.Cl	–	45.5	8 µg/mL	2 µg/mL	89 µg/mL	2 µg/mL	8 µg/mL
CCCCCCN(CCCOc1ccccc1OCCCN(CCCCCC)C(=O)[C@@H](N)CCCCN)C(=O)[C@@H](N)CCCCN.Cl.Cl.Cl.Cl	–	> 125	64 µg/mL	8 µg/mL	> 1000 µg/mL	8 µg/mL	32 µg/mL
CCCCCCCCN(CCCOc1ccccc1)C(=O)[C@@H](N)CCCCN.Cl.Cl	–	34	32 µg/mL	8 µg/mL	275 µg/mL	4 µg/mL	16 µg/mL
CCCCCCCCCCN(CCCOc1ccccc1-c1ccccc1OCCCN(CCCCCCCCCC)C(=O)[C@@H](N)CCCCN)C(=O)[C@@H](N)CCCCN.Cl.Cl.Cl.Cl	–	5	8 µg/mL	8 µg/mL	40 µg/mL	8 µg/mL	8 µg/mL
CCCCCCN(CCCOc1ccc(-c2ccc(OCCCN(CCCCCC)C(=O)[C@@H](N)CCCCN)cc2)cc1)C(=O)[C@@H](N)CCCCN.Cl.Cl.Cl.Cl	–	170	1 µg/mL	1 µg/mL	170 µg/mL	1 µg/mL	1 µg/mL
CCCCCCCN(CCOc1ccc(OCCN(CCCCCCC)C(=O)[C@@H](N)Cc2ccccc2)cc1)C(=O)[C@@H](N)Cc1ccccc1.Cl.Cl	–	72.5	> 128 µg/mL	2 µg/mL	145 µg/mL	1 µg/mL	> 128 µg/mL
CCCCCCCCN(CCCOc1ccc(-c2ccc(OCCCN(CCCCCCCC)C(=O)[C@@H](N)CCCCN)cc2)cc1)C(=O)[C@@H](N)CCCCN.Cl.Cl.Cl.Cl	–	< 0.125	4 µg/mL	2 µg/mL	< 0.25 µg/mL	2 µg/mL	4 µg/mL
CCCCCCCCN(CCCOc1ccc2c(OCCCN(CCCCCCCC)C(=O)[C@@H](N)CCCCN)cccc2c1)C(=O)[C@@H](N)CCCN.Cl.Cl.Cl.Cl	–	14	1 µg/mL	1 µg/mL	14 µg/mL	1 µg/mL	1 µg/mL
CCCCCCCCCN(CCCCOc1ccc(OCCCCN(CCCCCCCCC)C(=O)[C@@H](N)CCCCN)cc1)C(=O)[C@@H](N)CCCCN.Cl.Cl.Cl.Cl	–	6	2 µg/mL	2 µg/mL	12 µg/mL	1 µg/mL	1 µg/mL
CCCCCCCCN(CCCOc1ccccc1-c1ccccc1OCCCN(CCCCCCCC)C(=O)[C@@H](N)CCCCN)C(=O)[C@@H](N)CCCCN.Cl.Cl.Cl.Cl	–	5	2 µg/mL	4 µg/mL	20 µg/mL	1 µg/mL	2 µg/mL
CCCCCCCCN(CCCOc1cccc(-c2cccc(OCCCN(CCCCCCCC)C(=O)[C@@H](N)CCCCN)c2)c1)C(=O)[C@@H](N)CCCCN.Cl.Cl.Cl.Cl	–	7.5	2 µg/mL	2 µg/mL	15 µg/mL	1 µg/mL	2 µg/mL
CCCCCCN(CCCOc1cccc(-c2cccc(OCCCN(CCCCCC)C(=O)[C@@H](N)CCCCN)c2)c1)C(=O)[C@@H](N)CCCCN.Cl.Cl.Cl.Cl	–	432	1 µg/mL	0.5 µg/mL	216 µg/mL	0.5 µg/mL	1 µg/mL
CCCCCCCN(CCOc1ccc(OCCN(CCCCCCC)C(=O)[C@@H](N)CC(C)C)cc1)C(=O)[C@@H](N)CC(C)C.Cl.Cl	–	> 144	2 µg/mL	< 0.25 µg/mL	36 µg/mL	0.5 µg/mL	1 µg/mL
CCCCCCCCN(CCCCOc1ccc(OCCCCN(CCCCCCCC)C(=O)[C@@H](N)CCCCN)cc1)C(=O)[C@@H](N)CCCCN.Cl.Cl.Cl.Cl	–	14	2 µg/mL	2 µg/mL	28 µg/mL	1 µg/mL	1 µg/mL
CCCCCCCN(CCOc1ccc(OCCN(CCCCCCC)C(=O)[C@@H](N)[C@@H](C)CC)cc1)C(=O)[C@@H](N)[C@@H](C)CC.Cl.Cl	–	94	2 µg/mL	0.5 µg/mL	47 µg/mL	1 µg/mL	2 µg/mL
CCCCCCCN(CCCOc1ccccc1)C(=O)[C@@H](N)CCCCN.Cl.Cl	–	24.2	128 µg/mL	32 µg/mL	773 µg/mL	16 µg/mL	64 µg/mL
CCCCCCCCN(CCCOc1cc2ccccc2cc1OCCCN(CCCCCCCC)C(=O)[C@@H](N)CCCCN)C(=O)[C@@H](N)CCCCN.Cl.Cl.Cl.Cl	–	68	2 µg/mL	1 µg/mL	68 µg/mL	1 µg/mL	1 µg/mL
CCCCCCCCCN(CCCOc1ccc(OCCCN(CCCCCCCCC)C(=O)[C@@H](N)CCCCN)cc1)C(=O)[C@@H](N)CCCCN.Cl.Cl.Cl.Cl	–	10.5	2 µg/mL	2 µg/mL	11 µg/mL	1 µg/mL	1 µg/mL
CCCCCCCN(CCOc1ccc(OCCN(CCCCCCC)C(=O)[C@H](C)N)cc1)C(=O)[C@H](C)N.Cl.Cl	–	76	2 µg/mL	1 µg/mL	76 µg/mL	2 µg/mL	2 µg/mL
CCCCCCN(CCCOc1ccccc1)C(=O)[C@@H](N)CCCCN.Cl.Cl	–	> 15.6	128 µg/mL	64 µg/mL	> 1000 µg/mL	64 µg/mL	128 µg/mL
CCCCCCCCCCN(CCOc1ccc(OCCN(CCCCCCCCCC)C(=O)[C@@H](N)CCCCN)cc1)C(=O)[C@@H](N)CCCCN.Cl.Cl.Cl.Cl	–	< 0.625	4 µg/mL	4 µg/mL	< 2.5 µg/mL	2 µg/mL	2 µg/mL
CCCCCCCCN(CCCOc1ccc(OCCCN(CCCCCCCC)C(=O)[C@@H](N)CCCCN)cc1)C(=O)[C@@H](N)CCCCN.Cl.Cl.Cl.Cl	–	18.5	2 µg/mL	2 µg/mL	37 µg/mL	1 µg/mL	1 µg/mL
CCCCCCCCN(CCCOc1ccc2ccccc2c1-c1c(OCCCN(CCCCCCCC)C(=O)[C@@H](N)CCCCN)ccc2ccccc12)C(=O)[C@@H](N)CCCCN.Cl.Cl.Cl.Cl (stereo in doubt; 8o)	–	25	8 µg/mL	4 µg/mL	100 µg/mL	2 µg/mL	4 µg/mL
CCCCCCN(CCOc1ccc(OCCN(CCCCCC)C(=O)[C@@H](N)CCCCN)cc1)C(=O)[C@@H](N)CCCCN.Cl.Cl.Cl.Cl	–	> 250	64 µg/mL	4 µg/mL	> 1000 µg/mL	8 µg/mL	64 µg/mL
